According to ChEMBL document CHEMBL1201862, “PubChem BioAssay data set” (2004):
Each block holds one molecule with its values, some of them ahead of it. Activity calls are given as the source filed them.

What was measured:
[1] = target: T1, Neuropeptide Y receptor type 2 (Homo sapiens, UniProt P49146); assay type: functional, cell-based;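 also: HEK293 cells expressing the receptor and a CNG channel; stimulus was NPY near EC95 followed by isoproterenol to raise cAMP; antagonist potency measured as restoring cAMP signal that NPY suppresses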
T1 sequence (P49146 whole entry): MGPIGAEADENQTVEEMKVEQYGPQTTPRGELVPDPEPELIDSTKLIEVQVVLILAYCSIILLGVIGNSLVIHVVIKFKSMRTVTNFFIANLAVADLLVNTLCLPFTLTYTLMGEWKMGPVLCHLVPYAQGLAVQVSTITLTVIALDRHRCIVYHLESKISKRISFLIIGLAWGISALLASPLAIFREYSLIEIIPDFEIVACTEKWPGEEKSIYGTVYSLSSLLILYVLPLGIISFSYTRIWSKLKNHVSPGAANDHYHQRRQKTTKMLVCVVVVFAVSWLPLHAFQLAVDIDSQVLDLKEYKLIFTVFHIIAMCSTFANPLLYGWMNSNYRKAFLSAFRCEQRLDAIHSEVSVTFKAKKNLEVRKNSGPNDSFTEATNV

[2] = target: T2, Neuropeptide Y receptor type 1 (Homo sapiens, UniProt P25929); assay type: functional;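 also: HEK293 cells with a CNG channel challenged with NPY then isoproterenol; potency as antagonist that reverses NPY suppression of cAMP signal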
T2 sequence (P25929 whole entry): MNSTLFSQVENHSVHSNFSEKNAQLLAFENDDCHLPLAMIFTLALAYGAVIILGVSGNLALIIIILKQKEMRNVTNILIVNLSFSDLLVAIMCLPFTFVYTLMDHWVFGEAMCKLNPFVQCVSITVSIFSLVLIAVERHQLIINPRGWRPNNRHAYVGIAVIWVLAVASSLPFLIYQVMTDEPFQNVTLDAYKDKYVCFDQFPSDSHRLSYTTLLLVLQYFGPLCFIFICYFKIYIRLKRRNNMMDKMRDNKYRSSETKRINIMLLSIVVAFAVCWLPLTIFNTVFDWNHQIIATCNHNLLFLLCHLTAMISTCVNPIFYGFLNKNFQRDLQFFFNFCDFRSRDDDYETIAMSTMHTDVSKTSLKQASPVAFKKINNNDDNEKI

[3] = target: Ion channel NompC (Danio rerio, UniProt Q7T1G6); assay: Fluorescence counterscreen assay for TRPML3 agonists: dose response cell-based high-throughput screening assay to identify agonists of the transient receptor potential channel N1 (TRPN1). [Related pubchem assays: 1526, 1424, 1448 ]; assay type: functional
[4] = target: Mucolipin-3 (Homo sapiens, UniProt Q8TDD5); assay: Dose response cell-based high-throughput screening assay for agonists of the transient receptor potential channel ML3 (TRPML3). [Related pubchem assays: 1526, 1424, 1448 ]; assay type: functional
[5] = target: T3, High affinity choline transporter 1 (Homo sapiens, UniProt Q9GZV3); assay: human choline transporter blockers, potency – cell-based, 5-point CRC, membrane potential dye, dose response (AID 504840); assay type: functional
T3 sequence (Q9GZV3 whole entry): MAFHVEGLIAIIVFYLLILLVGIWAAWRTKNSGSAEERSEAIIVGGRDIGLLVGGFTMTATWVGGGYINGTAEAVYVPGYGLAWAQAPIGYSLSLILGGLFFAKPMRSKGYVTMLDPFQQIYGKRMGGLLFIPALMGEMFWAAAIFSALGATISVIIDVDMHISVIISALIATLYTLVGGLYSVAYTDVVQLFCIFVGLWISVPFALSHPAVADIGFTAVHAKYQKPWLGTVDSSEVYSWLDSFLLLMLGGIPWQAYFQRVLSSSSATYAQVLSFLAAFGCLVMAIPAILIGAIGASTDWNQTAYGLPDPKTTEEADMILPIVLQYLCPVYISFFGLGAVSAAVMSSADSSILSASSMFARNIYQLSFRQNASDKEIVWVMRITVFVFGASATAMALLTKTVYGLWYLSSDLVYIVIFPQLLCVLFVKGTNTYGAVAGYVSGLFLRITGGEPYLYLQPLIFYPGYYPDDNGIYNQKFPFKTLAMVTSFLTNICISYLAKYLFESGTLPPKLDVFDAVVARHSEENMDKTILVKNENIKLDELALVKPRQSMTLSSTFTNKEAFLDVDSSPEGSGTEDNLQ

[6] = target: T4, Corticotropin-releasing factor receptor 2/Corticotropin-releasing factor-binding protein (Homo sapiens, UniProt P24387+Q13324); assay: activators of CRF receptor 2 with binding protein – uHTS hits, confirmation (AID 602473); assay type: functional; conditions: read-out: EC50_Mean
T4 sequence (Q13324 whole entry): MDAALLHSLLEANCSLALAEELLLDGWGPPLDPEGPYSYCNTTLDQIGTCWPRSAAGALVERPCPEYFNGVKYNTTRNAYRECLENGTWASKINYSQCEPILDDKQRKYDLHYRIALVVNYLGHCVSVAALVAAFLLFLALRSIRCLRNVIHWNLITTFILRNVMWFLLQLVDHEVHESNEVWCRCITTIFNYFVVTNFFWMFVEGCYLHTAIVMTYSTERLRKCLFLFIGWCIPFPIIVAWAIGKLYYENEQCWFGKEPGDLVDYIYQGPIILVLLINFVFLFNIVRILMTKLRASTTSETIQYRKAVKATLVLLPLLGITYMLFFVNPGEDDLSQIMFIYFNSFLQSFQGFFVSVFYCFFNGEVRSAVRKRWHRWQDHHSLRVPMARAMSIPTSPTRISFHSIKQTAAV
T4 sequence (P24387 whole entry): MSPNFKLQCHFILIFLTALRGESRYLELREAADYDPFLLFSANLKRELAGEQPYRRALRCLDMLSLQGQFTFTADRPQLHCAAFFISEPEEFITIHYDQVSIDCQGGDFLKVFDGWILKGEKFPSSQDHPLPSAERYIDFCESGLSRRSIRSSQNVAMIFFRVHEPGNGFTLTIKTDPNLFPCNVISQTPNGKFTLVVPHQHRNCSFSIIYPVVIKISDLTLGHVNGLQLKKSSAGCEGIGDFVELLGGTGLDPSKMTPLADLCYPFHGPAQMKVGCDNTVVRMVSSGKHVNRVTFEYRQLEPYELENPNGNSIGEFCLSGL

[7] = target: T5, Short transient receptor potential channel 4 (Mus musculus, UniProt Q9QUQ5); assay: calcium entry via TRPC4 opening agents – cell-based, HEK293 TRPC4/mu-opioid, Fluo-4 calcium, dose response (AID 434937); assay type: functional
T5 sequence (Q9QUQ5 whole entry): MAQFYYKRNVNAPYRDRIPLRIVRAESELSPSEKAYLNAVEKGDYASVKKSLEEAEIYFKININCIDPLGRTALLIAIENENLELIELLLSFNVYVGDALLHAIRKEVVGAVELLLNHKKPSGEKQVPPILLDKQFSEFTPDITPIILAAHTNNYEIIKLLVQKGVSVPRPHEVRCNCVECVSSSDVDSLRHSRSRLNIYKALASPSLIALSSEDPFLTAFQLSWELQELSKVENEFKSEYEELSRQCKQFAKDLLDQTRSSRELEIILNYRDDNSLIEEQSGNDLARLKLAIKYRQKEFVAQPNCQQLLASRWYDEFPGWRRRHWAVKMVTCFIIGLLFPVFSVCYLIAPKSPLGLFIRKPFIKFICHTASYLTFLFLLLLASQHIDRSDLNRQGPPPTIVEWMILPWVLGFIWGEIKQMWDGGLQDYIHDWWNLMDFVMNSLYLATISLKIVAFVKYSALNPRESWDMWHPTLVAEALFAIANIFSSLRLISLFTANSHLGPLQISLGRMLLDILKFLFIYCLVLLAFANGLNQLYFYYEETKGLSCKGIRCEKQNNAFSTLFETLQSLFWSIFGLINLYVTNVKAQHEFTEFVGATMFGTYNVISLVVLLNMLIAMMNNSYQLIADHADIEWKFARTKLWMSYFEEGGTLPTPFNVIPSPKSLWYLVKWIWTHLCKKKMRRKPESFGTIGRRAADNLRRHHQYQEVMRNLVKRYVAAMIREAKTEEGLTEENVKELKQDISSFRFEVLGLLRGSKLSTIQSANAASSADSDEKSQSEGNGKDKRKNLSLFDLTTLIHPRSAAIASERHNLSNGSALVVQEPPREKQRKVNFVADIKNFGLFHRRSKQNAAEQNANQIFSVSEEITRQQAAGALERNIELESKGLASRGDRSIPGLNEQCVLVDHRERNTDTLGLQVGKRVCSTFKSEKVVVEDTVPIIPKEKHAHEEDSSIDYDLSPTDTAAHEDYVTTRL

[8] = target: Peroxisome proliferator-activated receptor gamma/Nuclear receptor coactivator 2 (Homo sapiens, UniProt P37231); assay type: functional;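 also: agonist potency for raising coactivator recruitment to the receptor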
[9] = target: Peroxisome proliferator-activated receptor gamma/Nuclear receptor coactivator 1 (Homo sapiens, UniProt P37231); assay type: functional;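 also: agonist potency as compounds enhance coactivator SRC-1 recruitment to PPARgamma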
[10] = target: Peroxisome proliferator-activated receptor gamma/Nuclear receptor coactivator 3 (Homo sapiens, UniProt P37231); assay type: functional;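 also: agonist potency for raising coactivator recruitment to the receptor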
[11] = viability of PTEN-deleted HCT116 cells – cell-based, HCT116 PTEN knockout, dose response (AID 1047); assay type: functional;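 also: HCT116 colon tumor cells with PTEN knocked out; cells exposed to compound for 60 hours before readout; potency for loss of cell viability measured by luminescence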
[12] = CCR5-tropic HIV-1 fusion blockers – cell-based, CCR5-tropic Env, dose response (AID 2279); assay type: functional
[13] = Luminescence Cell-Based Dose Retest to Confirm Inhibitors of Cancer Stem Cells. [Related pubchem assays (depositor defined):AID2717, AID2721]; assay type: functional; conditions: Homo sapiens
[14] = viability of HCT116 lacking mutant beta-catenin – cell-based, human colon tumor, dose response (AID 1045); assay type: functional;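 also: HCT116 colon tumor cells with beta catenin knocked out; cells exposed to compound for 60 hours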
[15] = target: T6, Bcl-2-like protein 10 (Homo sapiens, UniProt Q9HD36); assay: Concentration-response of Bcl-B inhibitors by biochemical FP with TR3 (AID 1243); assay type: functional
T6 sequence (Q9HD36 whole entry): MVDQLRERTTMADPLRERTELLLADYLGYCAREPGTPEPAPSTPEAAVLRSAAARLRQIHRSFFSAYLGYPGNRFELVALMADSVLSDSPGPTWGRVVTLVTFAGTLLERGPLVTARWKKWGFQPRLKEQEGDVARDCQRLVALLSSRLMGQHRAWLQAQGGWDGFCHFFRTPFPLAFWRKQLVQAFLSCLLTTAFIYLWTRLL

[16] = target: T7, Heat shock 70 kDa protein 1A (Homo sapiens, UniProt P0DMV8); assay: small molecules displacing fluorescent ligand from Hsp70 – biochemical, fluorescence polarization, primary screen (AID 583)
[17] = target: T6, Bcl-2-like protein 10; assay: Bcl-B/TR3 peptide binding disruption – biochemical, fluorescence polarization, FITC-TR3 peptide, selectivity assay for Bfl-1 inhibitor project, primary screen (AID 748);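 also: fluorescence polarization from a fluorescein-labelled TR3 peptide binding purified Bcl-B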
[18] = target: T7, Heat shock 70 kDa protein 1A; assay: small-molecule inhibition of Hsp70 – biochemical, TR-FRET (AID 786)
[19] = target: T8, Dual specificity protein phosphatase 6 (Rattus norvegicus, UniProt Q64346); assay: inhibition of rat DUSP6 enzyme activity – biochemical, in vitro, primary screen (AID 425)
T8 sequence (Q64346 whole entry): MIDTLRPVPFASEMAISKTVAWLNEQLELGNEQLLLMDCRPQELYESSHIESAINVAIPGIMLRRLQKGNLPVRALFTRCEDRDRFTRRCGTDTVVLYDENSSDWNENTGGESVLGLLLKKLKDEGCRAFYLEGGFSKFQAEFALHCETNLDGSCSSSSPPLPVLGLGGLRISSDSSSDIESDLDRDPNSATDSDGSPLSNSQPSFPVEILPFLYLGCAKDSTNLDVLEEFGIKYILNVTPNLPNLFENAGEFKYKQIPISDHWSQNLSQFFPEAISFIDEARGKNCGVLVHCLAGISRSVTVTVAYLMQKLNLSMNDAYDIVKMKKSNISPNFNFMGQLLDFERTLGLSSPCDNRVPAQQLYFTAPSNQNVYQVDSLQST
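For AC50 in this document: cells exposed to compound for roughly 70 hours or longer before luminescence read.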

T7 sequence (P0DMV8 whole entry): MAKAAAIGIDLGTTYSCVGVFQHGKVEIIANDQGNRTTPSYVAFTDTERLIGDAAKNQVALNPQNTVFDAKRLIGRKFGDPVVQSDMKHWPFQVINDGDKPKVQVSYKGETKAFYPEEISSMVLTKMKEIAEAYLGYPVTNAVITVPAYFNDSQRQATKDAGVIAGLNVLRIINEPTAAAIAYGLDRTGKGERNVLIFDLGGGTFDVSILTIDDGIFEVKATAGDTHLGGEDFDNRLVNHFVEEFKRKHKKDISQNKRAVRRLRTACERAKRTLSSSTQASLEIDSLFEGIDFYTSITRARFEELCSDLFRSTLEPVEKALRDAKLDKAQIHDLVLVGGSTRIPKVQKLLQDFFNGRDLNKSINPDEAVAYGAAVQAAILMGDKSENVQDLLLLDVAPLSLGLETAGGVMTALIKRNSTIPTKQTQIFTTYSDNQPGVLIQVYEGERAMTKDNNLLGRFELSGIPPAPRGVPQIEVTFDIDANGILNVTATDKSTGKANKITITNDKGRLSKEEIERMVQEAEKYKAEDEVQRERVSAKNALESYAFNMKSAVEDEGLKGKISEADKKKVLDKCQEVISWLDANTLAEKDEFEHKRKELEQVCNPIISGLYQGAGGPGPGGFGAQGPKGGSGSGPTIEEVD
Chain of Ion channel NompC (Q7T1G6 whole entry): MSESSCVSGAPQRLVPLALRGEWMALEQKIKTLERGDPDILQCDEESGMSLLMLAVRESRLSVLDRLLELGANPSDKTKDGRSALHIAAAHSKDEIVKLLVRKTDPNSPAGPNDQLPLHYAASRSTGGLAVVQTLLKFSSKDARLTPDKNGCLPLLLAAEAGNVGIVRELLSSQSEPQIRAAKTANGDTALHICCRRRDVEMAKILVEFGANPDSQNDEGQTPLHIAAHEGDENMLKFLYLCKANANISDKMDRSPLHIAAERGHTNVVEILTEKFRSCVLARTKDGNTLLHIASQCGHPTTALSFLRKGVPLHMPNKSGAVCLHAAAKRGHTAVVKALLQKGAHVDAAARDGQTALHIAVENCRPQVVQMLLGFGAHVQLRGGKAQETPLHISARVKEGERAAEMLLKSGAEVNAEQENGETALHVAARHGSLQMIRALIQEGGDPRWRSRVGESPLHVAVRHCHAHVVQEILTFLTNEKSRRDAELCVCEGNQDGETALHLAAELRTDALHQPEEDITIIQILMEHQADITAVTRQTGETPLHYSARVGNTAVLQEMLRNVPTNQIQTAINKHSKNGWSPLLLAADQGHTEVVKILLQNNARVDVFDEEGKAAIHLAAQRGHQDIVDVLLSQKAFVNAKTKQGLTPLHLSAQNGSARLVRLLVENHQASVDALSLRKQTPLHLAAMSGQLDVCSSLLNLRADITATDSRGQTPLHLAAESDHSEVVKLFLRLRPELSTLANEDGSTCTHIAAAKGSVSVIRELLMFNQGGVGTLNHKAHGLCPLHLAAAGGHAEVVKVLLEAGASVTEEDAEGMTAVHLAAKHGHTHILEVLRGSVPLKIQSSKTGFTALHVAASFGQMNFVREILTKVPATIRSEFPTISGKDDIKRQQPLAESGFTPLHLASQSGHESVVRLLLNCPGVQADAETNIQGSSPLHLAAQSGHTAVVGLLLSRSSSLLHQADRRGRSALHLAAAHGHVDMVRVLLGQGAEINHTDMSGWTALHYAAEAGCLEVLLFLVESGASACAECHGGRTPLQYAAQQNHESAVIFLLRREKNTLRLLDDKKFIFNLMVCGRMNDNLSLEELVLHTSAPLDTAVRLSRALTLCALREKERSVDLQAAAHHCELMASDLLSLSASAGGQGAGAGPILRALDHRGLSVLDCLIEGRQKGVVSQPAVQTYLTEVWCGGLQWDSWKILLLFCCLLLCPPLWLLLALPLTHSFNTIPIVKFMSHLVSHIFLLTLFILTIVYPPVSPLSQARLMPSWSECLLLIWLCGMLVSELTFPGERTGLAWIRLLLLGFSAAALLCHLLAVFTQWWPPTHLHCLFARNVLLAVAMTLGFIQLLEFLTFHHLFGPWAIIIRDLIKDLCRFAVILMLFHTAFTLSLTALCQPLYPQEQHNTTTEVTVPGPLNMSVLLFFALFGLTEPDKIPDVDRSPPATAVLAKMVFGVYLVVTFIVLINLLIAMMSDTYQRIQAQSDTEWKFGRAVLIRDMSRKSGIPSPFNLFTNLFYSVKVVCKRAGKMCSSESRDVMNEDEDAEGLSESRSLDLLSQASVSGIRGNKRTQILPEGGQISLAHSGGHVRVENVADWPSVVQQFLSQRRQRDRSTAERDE
Chain of Peroxisome proliferator-activated receptor gamma/Nuclear receptor coactivator 3 (P37231 whole entry): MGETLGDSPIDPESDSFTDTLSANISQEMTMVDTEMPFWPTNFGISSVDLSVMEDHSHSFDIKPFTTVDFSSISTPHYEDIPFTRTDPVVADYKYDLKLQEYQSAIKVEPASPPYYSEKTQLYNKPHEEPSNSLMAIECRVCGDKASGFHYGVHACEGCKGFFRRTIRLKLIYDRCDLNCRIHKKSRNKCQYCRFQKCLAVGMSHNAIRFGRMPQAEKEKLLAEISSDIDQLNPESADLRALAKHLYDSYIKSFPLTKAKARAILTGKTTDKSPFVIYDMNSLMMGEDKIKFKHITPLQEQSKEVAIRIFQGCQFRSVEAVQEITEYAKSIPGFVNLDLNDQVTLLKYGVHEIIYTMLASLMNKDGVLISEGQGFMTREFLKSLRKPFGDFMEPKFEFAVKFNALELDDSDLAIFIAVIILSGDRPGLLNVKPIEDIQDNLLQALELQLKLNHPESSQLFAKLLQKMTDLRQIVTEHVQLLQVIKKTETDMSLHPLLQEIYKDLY
Chain of Peroxisome proliferator-activated receptor gamma/Nuclear receptor coactivator 3 (Q9Y6Q9 whole entry, further chain): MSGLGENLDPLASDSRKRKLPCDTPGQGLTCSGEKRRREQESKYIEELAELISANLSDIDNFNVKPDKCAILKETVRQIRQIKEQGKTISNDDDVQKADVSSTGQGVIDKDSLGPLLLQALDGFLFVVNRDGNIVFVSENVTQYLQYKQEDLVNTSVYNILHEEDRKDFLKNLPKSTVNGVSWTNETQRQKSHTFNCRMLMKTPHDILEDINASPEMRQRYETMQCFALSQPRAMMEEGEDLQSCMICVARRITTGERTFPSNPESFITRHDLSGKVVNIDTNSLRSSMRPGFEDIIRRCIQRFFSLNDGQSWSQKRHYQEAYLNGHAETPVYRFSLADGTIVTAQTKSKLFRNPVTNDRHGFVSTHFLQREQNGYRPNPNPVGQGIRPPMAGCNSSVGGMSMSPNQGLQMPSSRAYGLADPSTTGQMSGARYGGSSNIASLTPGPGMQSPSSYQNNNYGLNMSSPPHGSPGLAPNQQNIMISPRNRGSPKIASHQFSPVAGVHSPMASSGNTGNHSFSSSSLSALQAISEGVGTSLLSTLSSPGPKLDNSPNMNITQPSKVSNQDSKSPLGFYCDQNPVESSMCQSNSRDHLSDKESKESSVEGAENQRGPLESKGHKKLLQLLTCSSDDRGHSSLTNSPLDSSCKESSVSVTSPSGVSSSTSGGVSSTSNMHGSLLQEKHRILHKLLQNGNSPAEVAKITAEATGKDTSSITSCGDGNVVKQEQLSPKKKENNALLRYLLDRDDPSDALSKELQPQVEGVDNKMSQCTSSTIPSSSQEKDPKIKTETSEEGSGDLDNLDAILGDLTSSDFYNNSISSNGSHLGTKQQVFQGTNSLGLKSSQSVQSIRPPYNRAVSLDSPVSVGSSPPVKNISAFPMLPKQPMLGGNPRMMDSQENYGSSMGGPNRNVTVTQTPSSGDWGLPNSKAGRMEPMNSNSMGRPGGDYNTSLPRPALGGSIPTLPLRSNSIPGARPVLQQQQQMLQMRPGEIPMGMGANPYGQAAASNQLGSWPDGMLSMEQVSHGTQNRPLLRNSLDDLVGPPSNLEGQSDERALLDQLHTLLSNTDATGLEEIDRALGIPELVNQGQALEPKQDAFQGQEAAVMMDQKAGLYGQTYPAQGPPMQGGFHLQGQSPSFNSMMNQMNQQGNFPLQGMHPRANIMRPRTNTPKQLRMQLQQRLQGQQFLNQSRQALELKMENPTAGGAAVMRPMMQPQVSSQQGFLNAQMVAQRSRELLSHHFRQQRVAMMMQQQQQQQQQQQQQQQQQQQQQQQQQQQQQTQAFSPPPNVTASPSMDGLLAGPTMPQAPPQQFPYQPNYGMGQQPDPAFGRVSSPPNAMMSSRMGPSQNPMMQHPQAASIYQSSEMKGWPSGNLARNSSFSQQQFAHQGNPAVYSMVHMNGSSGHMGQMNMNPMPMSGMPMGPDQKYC
Chain of Mucolipin-3 (Q8TDD5 whole entry): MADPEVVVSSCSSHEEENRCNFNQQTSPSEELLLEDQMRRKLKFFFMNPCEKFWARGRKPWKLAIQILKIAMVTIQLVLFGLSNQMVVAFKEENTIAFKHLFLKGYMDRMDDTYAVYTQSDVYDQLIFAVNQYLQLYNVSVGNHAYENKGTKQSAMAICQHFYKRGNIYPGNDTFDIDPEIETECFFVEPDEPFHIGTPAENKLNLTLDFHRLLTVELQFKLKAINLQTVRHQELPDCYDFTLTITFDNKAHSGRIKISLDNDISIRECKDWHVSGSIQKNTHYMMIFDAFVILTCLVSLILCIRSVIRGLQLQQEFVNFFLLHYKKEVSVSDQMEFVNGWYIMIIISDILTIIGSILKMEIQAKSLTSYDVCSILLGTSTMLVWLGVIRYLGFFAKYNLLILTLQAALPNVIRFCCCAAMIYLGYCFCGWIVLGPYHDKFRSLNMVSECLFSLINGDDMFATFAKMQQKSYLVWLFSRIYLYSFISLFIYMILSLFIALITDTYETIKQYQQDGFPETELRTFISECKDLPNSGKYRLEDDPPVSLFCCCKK

IC50 [1]: 6.88 µM (active)
IC50 [2]: 5.27 µM (active)
SMILES: Clc1ccc(CSc2cc3c(nn2)-c2ccccc2CC3)cc1Cl

EC50 [3]: 5.44 µM (active)
EC50 [4]: 5.99 µM (active)
IC50 [5]: 28.8 µM (active)
EC50 [6]: 12.2 µM (active)
EC50 [7]: 5.31 µM (active)
SMILES: O=C(NC(=S)NNC(=O)c1cccs1)c1ccc(Br)o1

EC50 [8]: > 79.4 µM (not active)
EC50 [9]: > 79.4 µM (not active)
EC50 [10]: > 79.4 µM (not active)
SMILES: Brc1ccc(-c2csc(N/N=C/c3ccco3)n2)cc1

SMILES: O=C(O)CCn1cc(/C=C/C(=O)c2ccc(Cl)cc2)c(-c2ccc(Br)cc2)n1
EC50 [11]: 15.9 µM (active)
IC50 [12]: 22.7 µM (active)
AC50 [13]: 5.62 µM (active)
EC50 [14]: 15.5 µM (active)

EC50 [15]: 0.94 µM (active)
SMILES: Cc1ccc(C)n1-c1ccc(Cl)cc1C(=O)O

IC50 [16]: 48.3 µM (active)
IC50 [17]: 1.13 µM (active)
IC50 [18]: 18.5 µM (active)
IC50 [19]: > 10 µM (not active)
SMILES: Cc1ccc(C)n1-c1cccc(C(=O)O)c1
